{"source": "patent US20040097555A1", "about": "“Concomitant drugs” (priority 2000, published 2004)", "key": {"[1]": {"tested_on": "TNF-α production in THP-1 cells", "test": "Measurement of inhibiting activity of TNF-α production in LPS-stimulated THP-1 cells (ELISA), Reference Example F3", "assay_type": "cell-based", "settings": "Homo sapiens, LPS 5 μg/mL, 4 hours, read-out: IC50 (concentration necessary for inhibiting TNF-α production by 50%)", "procedure": "(§1) Measurement of inhibiting activity of TNF-α production\nAfter THP-1 cells which had been cultured in PRMI 1640 medium (manufactured by Life Technologies, Inc.) containing 1% non-activated bovine fetal serum (manufactured by Life Technologies, Inc., U.S.A.) and 10 mM HEPES (pH 7.5) seeded on a 96-well plate to 1×10^5 cells/well, 1 μL test compound dissolved in DMSO was added to there. After incubation at 37° C. for 1 hour in a CO2 incubator, LPS (Wako Pure Chemicals) was added to the final concentration 5 μg/mL. After cultured at 37° C. for 4 hours in a CO2 incubator, the supernatant was obtained by centrifugation. The concentration of TNF-α in the supernatant was measured with ELISA (R&D System, Quantikine Kit). The concentration (IC50 value) necessary for inhibiting TNF-α production by 50% was calculated by PRIMS 2.01 (Graphpad Software)."}, "[2]": {"molecular_target": "T1, human p38 MAP kinase (Homo sapiens, UniProt Q16539)", "T1 construct": "FLAG (N); made in house; host or cells: Sf-21 insect cells, baculovirus (BAC-HP38 co-infected with BAC-caMKK3)", "T1 sequence (Q16539 whole entry)": "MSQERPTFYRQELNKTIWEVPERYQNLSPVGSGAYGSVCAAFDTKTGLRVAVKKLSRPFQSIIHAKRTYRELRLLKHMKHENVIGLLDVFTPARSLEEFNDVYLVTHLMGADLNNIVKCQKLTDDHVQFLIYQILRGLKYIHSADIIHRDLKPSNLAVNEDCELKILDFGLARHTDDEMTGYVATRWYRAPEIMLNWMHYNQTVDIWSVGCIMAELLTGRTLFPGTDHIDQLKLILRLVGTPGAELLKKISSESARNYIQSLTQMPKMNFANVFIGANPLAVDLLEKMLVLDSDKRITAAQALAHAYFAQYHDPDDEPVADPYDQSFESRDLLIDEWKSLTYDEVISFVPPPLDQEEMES", "test": "Measurement of the enzyme inhibitory activity of active form p38 MAP kinase (32P uptake into Myelin Basic Protein), Reference Example C1", "assay_type": "biochemical", "settings": "concentration inhibiting uptake of 32P into acid insoluble fraction (Myelin Basic Protein) by 50%, Table 45", "procedure": "(1) Cloning of Human p38 MAP Kinase Gene and Preparation of Recombinant Baculovirus\nCloning of human p38 MAP kinase gene was performed by a PCR method using a primer set P38-U: 5′-[…]-3′ [SEQ ID NO:1] and PAG-L: 5′-[…]-3′ [SEQ ID NO:2] made by the use of kidney cDNA (Toyobo, QUICK-Clone cDNA) as a template and referring to the base sequence of p38 MAP kinase gene reported by Han et al. (Science 265 (5173), 808-811 (1994)).\n(2) Cloning of Human MKK3 Gene and Preparation of Recombinant Baculovirus\n(3) Preparation of Active Form p38 MAP Kinase\nThe Sf-21 cells were seeded on 100 mL Sf-900II SFM medium (GIBCOBRL) to 1×10^6 cells/mL and cultured at 27° C. for 24 hours. After each 0.2 mL of the virusstock BAC-HP38 and BAC-caMKK3 of recombinant baculovirus were added, the culturing was further performed for 48 hours. After the cells were separated from the culturing solution by centrifugation (3000 rpm, 10 min), the cells were washed twice with PBS. After the cells were suspended in 10 ml Lysis buffer (25 mM HEPES (pH 7.5), 1% Triton X, […], 1 mM EDTA, 1 mM DTT, 25 mM β-glycerophosphate, […], 1 mM APMSF, 1 mM Sodium orthovanadate), the cells were lysed by treating twice in a homogenizer (POLYTRON) at 20000 rpm for 2 minutes. From the supernatant obtained by centrifugation (40000 rpm, 45 minutes), active form p38 MAP kinase was purified using Anti-FLAG M2 Affinity Gel (Eastman Chemical).\n(4) Measurement of the Enzyme Inhibitory Activity\n2.5 μL of a test compound dissolved in DMSO was added to 37.5 μL reaction solution (25 mM HEPES (pH 7.5), 10 mM Magnesium Acetate) containing 260 ng active form p38 MAP kinase and 1 μg Myelin Basic Protein, which was maintained at 30° C. for 5 minutes. The reaction was initiated by adding […] ATP solution (2.5 μM ATP, 0.1 μCi [g-^32P]ATP). After the reaction was performed at 30° C. for 60 minutes, the reaction was stopped by adding 50 μL 20% TCA solution. After the reaction solution was allowed to stand at 0° C. for 20 minutes, an acid insoluble fraction was transferred to GF/C filter (Packard Japan) using Cell Harvester (Packard Japan) and washed with 250 mM H3PO4. After drying at 45° C. for 60 minutes, 40 μL Microscint 0 (Packard Japan) was added and the radioactivity was measured with a TopCount (Packard Japan). The concentration (IC50 value) of the test compound necessary for inhibiting uptake of ^32P into an acid insoluble fraction by 50% was calculated with PRISM 2.01 (Graphpad Software)."}, "[3]": {"tested_on": "TNF-α production in THP-1 cells", "test": "Measurement of inhibiting activity of TNF-α production in LPS-stimulated THP-1 cells (ELISA), Experimental Example C2", "assay_type": "cell-based", "settings": "Homo sapiens, concentration inhibiting TNF-α production by 50%, LPS 5 μg/mL, 4 hour, Table 46", "procedure": "as §1\nAfter THP-1 cells which had been cultured on PRMI 1640 medium (manufactured by Life Technologies, Inc.) containing 1% inactivated bovine fetal serum (manufactured by Life Technologies, Inc., U.S.A.) and 10 mM HEPES (pH 7.5) seeded on a 96-well plate to 1×10^5 cells/well, 1 μL test compound dissolved in DMSO was added. After incubation at 37° C. for 1 hour in a CO2 incubator, LPS (Wako Pure Chemicals) was added to the final concentration 5 μg/mL. After cultured at 37° C. for 4 hour in a CO2 incubator, the supernatant was obtained by centrifugation. The concentration of TNF-α in the supernatant was measured by ELISA (R&D Systems, Quantikine Kit). The concentration (IC50 value) of the test compound necessary for inhibiting TNF-α production by 50% was calculated using PRIMS 2.01 (Graphpad Software)."}}, "note": "pIC50: −log10 of the molar value.", "data": [{"compound": "CNc1nc(-c2ccc(OC)cc2)c(-c2cccnc2)s1", "note": "[Reference Example A 9, N-methyl [4-(4-methoxyphenyl)-5-(3-pyridyl)-1,3-thiazol-2-yl]amine]", "values": [{"measurement": "melting point", "value": "158 to 159", "unit": "°C"}]}, {"compound": "Cc1cc(C)cc(-c2nc(N)sc2-c2ccnc(NC(=O)c3ccccc3)c2)c1", "note": "[compound 5]", "values": [{"measurement": "pIC50", "setting": "[1]", "value": 7.70}]}, {"compound": "CNc1nc(-c2ccc(Cl)cc2)c(-c2ccncc2)s1", "note": "[13-70, N-methyl [4-(4-chlorophenyl)-5-(4-pyridyl)-1,3-thiazol-2-yl]amine]", "values": [{"measurement": "pIC50", "setting": "[2]", "value": 7.59}]}, {"compound": "Cc1cccc(-c2nc(-c3ccc(S(C)(=O)=O)cc3)sc2-c2ccnc(S(=O)(=O)c3ccccc3)c2)c1", "note": "[Reference Example D 28, 4-(3-methylphenyl)-2-(4-methylsulfonylphenyl)-5-(2-phenylsulfonyl-4-pyridyl)-1,3-thiazole]", "values": [{"measurement": "melting point", "value": "90 to 91", "unit": "°C"}]}, {"compound": "Cc1cccc(-c2nc(N)sc2-c2ccncc2)c1", "note": "[23-60, [4-(3-methylphenyl)-5-(4-pyridyl)-1,3-thiazol-2-yl]amine]", "values": [{"measurement": "pIC50", "setting": "[3]", "value": 7.34}]}, {"compound": "Nc1nc(-c2ccccc2)c(-c2ccncc2)s1", "note": "[13-15, [4-phenyl-5-(4-pyridyl)-1,3-thiazol-2-yl]amine]", "values": [{"measurement": "pIC50", "setting": "[2]", "value": 7.09}]}, {"compound": "CNc1nc(-c2ccc(OC)cc2)c(-c2ccncc2)s1", "note": "[13-16, N-methyl [4-(4-methoxyphenyl)-5-(4-pyridyl)-1,3-thiazol-2-yl]amine]", "values": [{"measurement": "pIC50", "setting": "[2]", "value": 7.22}]}, {"compound": "COc1ccc(-c2nc(N)sc2-c2cccnc2)cc1.Cl", "values": [{"measurement": "melting point", "value": "145 to 150", "unit": "°C"}]}, {"compound": "Fc1ccc(-c2nc(-c3ccccc3)sc2-c2ccncc2)cc1", "note": "[44-1, 4-(4-fluorophenyl)-2-phenyl-5-(4-pyridyl)-1,3-thiazole]", "values": [{"measurement": "melting point", "value": "135 to 137", "unit": "°C"}]}, {"compound": "COc1ccc(-c2nc(N)sc2-c2cccnc2)cc1", "note": "[Reference Example A 8, [4-(4-methoxyphenyl)-5-(3-pyridyl)-1,3-thiazol-2-yl]amine]", "values": [{"measurement": "melting point", "value": "265 to 266", "unit": "°C"}]}, {"compound": "COc1ccc(-c2nc(N)sc2-c2ccncc2)cc1", "note": "[13-14, [4-(4-methoxyphenyl)-5-(4-pyridyl)-1,3-thiazol-2-yl]amine]", "values": [{"measurement": "pIC50", "setting": "[2]", "value": 7.07}]}]}
